According to US20140051679A1, “KINASE INHIBITORS AND METHOD OF TREATING CANCER WITH SAME” (UNIVERISTY HEALTH NETWORKS, priority 2011, published 2014):

What was measured:
human TTK = target: T1, human TTK (Homo sapiens, UniProt P33981); test: TTK inhibition assay (indirect ELISA); assay type: biochemical; conditions: GST-TTK 0.68 nM, 16 μM ATP; read-out: IC50 Ranges TTK
T1 construct: amino terminal GST fusion of full length human TTK; purchased Invitrogen
T1 sequence (P33981 1-857): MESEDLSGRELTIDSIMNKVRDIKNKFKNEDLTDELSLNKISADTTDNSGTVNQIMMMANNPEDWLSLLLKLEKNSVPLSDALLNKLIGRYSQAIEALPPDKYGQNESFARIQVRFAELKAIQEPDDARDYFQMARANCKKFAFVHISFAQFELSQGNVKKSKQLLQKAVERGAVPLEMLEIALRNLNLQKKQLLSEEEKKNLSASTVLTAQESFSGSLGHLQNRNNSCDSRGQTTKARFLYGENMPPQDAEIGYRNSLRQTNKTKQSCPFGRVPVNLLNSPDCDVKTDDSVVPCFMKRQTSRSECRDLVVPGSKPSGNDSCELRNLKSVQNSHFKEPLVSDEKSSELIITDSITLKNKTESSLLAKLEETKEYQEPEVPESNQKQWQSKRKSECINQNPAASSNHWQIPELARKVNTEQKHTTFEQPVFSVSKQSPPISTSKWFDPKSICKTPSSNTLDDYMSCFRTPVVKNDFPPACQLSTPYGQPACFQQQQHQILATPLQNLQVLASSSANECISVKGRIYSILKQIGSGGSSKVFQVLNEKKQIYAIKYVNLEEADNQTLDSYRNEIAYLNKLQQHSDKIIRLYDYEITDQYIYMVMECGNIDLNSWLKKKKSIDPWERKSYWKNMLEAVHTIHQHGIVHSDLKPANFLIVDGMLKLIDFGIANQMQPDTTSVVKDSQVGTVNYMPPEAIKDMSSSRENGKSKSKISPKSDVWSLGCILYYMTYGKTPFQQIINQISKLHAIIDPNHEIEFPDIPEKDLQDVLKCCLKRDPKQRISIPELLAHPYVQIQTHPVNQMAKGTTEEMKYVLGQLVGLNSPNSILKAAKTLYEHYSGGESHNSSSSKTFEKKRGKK

human PLK4 = target: T2, human PLK4 (Homo sapiens, UniProt O00444); test: PLK4 inhibition assay (indirect ELISA); assay type: biochemical; conditions: GST-PLK4 4 nM, 15 μM ATP; read-out: IC50 Ranges PLK4
T2 construct: amino terminal GST fusion of residues 1-391 of human PLK4; made in house; host or cells: E. coli
T2 sequence (O00444 1-391): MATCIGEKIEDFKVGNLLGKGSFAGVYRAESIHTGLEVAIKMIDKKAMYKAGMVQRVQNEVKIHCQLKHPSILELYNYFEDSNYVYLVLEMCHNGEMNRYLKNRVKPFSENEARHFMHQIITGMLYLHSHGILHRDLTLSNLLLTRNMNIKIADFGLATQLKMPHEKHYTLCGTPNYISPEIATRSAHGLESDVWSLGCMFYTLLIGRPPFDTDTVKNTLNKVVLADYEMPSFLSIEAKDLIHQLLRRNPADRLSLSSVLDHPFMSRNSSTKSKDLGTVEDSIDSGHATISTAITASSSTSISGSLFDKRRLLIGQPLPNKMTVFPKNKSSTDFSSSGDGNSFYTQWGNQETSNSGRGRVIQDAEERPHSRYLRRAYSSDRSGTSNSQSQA
Outline: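 Dephosphorylated GST-tagged human PLK4 (residues 1-391, E. coli), 4 nM, preincubated 15 min with compound, then reacted 30 min with 15 μM ATP on MBP-coated plates (50 mM HEPES pH 7.5, 10 mM MgCl2, 0.01% Brij 35). Phospho-MBP detected by antibody ELISA at 450 nm. Tested at 10 μM or 10-point titrations; IC50 from 4-parameter logistic fit.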

Aurora B = target: T3, Aurora B (Homo sapiens, UniProt Q96GD4); test: Aurora B inhibition assay (Z-Lyte); assay type: biochemical; conditions: 28 nM Aurora B, 128 μM ATP; read-out: IC50 Ranges Aurora B
T3 construct: purchased Invitrogen PV3970
Protocol: Aurora B inhibition was determined using the Z-Lyte assay kit from Invitrogen. The assay was performed using the recommended manufacturer's instructions with 128 μM ATP and 28 nM Aurora B (Invitrogen cat #PV3970). The % inhibition values were determined according to the manufacturer's directions and IC50 values were obtained using a non-linear 4 point logistic curve fit (XLfit4, IDBS)

[1] = system: MDA-MB-468 breast cancer cells; test: Cell growth inhibition, Sulforhodamine B assay, MDA-MB-468; assay type: cell-based; conditions: Homo sapiens, 120 h, 5 days culture, SRB assay, read-out: Cell Line GI50 Range MDA-MB-468
[2] = system: HCT116 colon cancer cells; test: Cell growth inhibition, Sulforhodamine B assay, HCT116; assay type: cell-based; conditions: Homo sapiens, HCT-116, 120 h, 5 days culture, SRB assay, read-out: Cell Line GI50 Range HCT116
HT29 colon cancer cells = test: Cell growth inhibition, Sulforhodamine B assay, HT29; assay type: cell-based; conditions: Homo sapiens, HT-29, 120 h, 5 days culture, SRB assay, read-out: Cell Line GI50 Range HT29
[3] = system: PA-1 ovarian cancer cells; test: Cell growth inhibition, Sulforhodamine B assay, PA-1; assay type: cell-based; conditions: 120 h, 5 days culture, SRB assay, read-out: Cell Line GI50 Range PA-1
Protocol: (§1) Breast cancer cells (MDA-MB-231, MDA-MB-468), colon cancer cells (HCT116, HT29) and ovarian cancer cells (PA-1, OVCAR-3) were seeded (1000 to 4000 in 80 μl per well depending on the cell growth rate) into 96 well plates 24 hours before compound overlay. Compounds were prepared as 10 mM stock solutions in 100% DMSO which were diluted with DMEM (Dulbecco's Modified Eagle's Medium) cell growth Medium (Invitrogen, Burlington, ON, Canada) containing 10% FBS (Fetal Bovine Serum) to concentrations ranging from 50 nM to 250 μM. Aliquots (20 μl) from each concentration were overlaid to 80 μl of the pre-seeded cells in the 96 well plates to make final concentrations of 10 nM to 50 μM. The cells were cultured for 5 days before the Sulforhodamine B assay (SRB) was performed to determine the compound's cell growth inhibition activity.
(§2) Sulforhodamine B (purchased from Sigma, Oakville, ON, Canada) is a water-soluble dye that binds to the basic amino acids of the cellular proteins. Thus, colorimetric measurement of the bound dye provides an estimate of the total protein mass that is related to the cell number. the cells are fixed in situ by gently aspirating off the culture media and adding 50 μl ice cold 10% Trichloroacetic Acid (TCA) per well and incubate at 4° C. for 30-60 min, The plates are washed with water five times and allowed to air dry for 5 min. Addition of 50 μl 0.4% (w/v) SRB solution in 1% (v/v) acetic acid to each well and incubatation for 30 min at RT completes the staining reaction. Following staining, plates are washed four times with 1% acetic acid to remove unbound dye and then allowed to air dry for 5 min. The stain is solubilized with 100 μl of 10 mM Tris pH 10.5 per well. Absorbance is read at 570 nm.
(§3) The percentage (%) of relative growth inhibition was calculated by comparing to DMSO treated only cells (100%). […] The GI50 was calculated using GraphPad PRISM software (GraphPad Software, Inc., San Diego, Calif., USA).

[4] = system: Colon tumor initiating cells (TICs), 12 colon; test: Colon tumor-initiating cell growth inhibition (Alamar Blue); assay type: cell-based; conditions: 216 h, 9 days, read-out: GI50 range 12 colon
[5] = system: Ovarian TICs, 2393A ovarian; test: Ovarian tumor-initiating cell growth inhibition (Alamar Blue); assay type: cell-based; conditions: 144 h, 6 days, read-out: GI50 range 2393A ovarian
Excerpt: Materials and Methods: Non-tissue or tissure cultured treated T-75 flask and 96-well plates were purchased from VWR. Vitamin B-27 supplement, MEM NEAA (minimum essential medium non essential amino acids), sodium pyruvate, L-glutamine, N2 supplement, penicillin-streptomycin and fungizone/amphotericin B were obtained from Invitrogen. Lipid mixture, heparin and EGF were purchased from Sigma; bFGF from BD Biosciences. Colon tumor initiating cells (TICs) were routinely maintained using non-tissue cultured treated T-75 flasks in DMEM:F12 medium containing 0.2XB-27 supplement, 4 ug/ml heparin, 1XMEM NEAA, 1× sodium pyruvate, 1 mM glutamine, 10 pg/ul bFGF, 20 pg/ul EGF, 1×N2 supplement, lipid mixture, penicillin-streptomycin and fungizone/amphotericin B. Ovarian TICs were routinely maintained using tissue cultured treated T-75 flasks in DMEM:F12 medium containing 1XB-27 supplement, 4 ug/ml heparin, 20 pg/ul bFGF, 20 pg/ul EGF and penicillin-streptomycin.
Compounds described herein were dissolved in DMSO and further diluted in cell culture medium for GI50 determination. Colon TICs were trypsinized and seeded into non-tissue cultured treated 96-well plates with 4,000 cells/well. After 24 h, compound was added into the cell culture at different concentrations, and the final concentration of DMSO was adjusted to 0.1%. Cells were then cultured at 37° C. for 9 days. Ovarian TICs were trypsinized and seeded into tissue cultured treated 96-well plates with 1,000 cells/well. After 24 h, compound was added into the cell culture at different concentrations, and the final concentration of DMSO was adjusted to 0.1%. Cells were then cultured at 37° C. for 6 days. Cell viability was assessed by Alamar Blue assay: 10 ul of Alamar Blue was added into each well. After 4 hours incubation at 37° C., fluorescence was recorded at excitation 544 and emission 590. GI50 (Growth inhibition) was calculated using GraphPad Prism 4.0 software.

[6] = system: OVCAR-3 ovarian cancer cells; test: Cell growth inhibition, Sulforhodamine B assay, OVCAR-3; assay type: cell-based; conditions: Homo sapiens, 120 h, 5 days culture, SRB assay, read-out: Cell Line GI50 Range OVCAR-3
Protocol: as §1, §2, §3

[7] = system: MDA-MB-231 breast cancer cells; test: Cell growth inhibition, Sulforhodamine B assay, MDA-MB-231; assay type: cell-based; conditions: Homo sapiens, 120 h, 5 days culture, SRB assay, read-out: Cell Line GI50 Range MDA-MB-231

T3 sequence (Q96GD4 whole entry): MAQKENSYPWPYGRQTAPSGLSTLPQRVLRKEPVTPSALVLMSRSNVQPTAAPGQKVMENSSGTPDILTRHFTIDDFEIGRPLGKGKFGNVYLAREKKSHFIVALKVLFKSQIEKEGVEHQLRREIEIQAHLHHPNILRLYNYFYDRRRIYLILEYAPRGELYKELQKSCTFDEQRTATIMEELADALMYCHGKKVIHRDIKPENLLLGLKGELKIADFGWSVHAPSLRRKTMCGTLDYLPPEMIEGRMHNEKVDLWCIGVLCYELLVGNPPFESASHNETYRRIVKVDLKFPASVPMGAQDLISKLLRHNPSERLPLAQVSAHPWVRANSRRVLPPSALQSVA

| Compound | IC50 (human TTK) | IC50 (human PLK4) | IC50 (Aurora B) | GI50 [1] | GI50 [2] | GI50 (HT29 colon cancer cells) | GI50 [3] | GI50 [4] | GI50 [5] | GI50 [6] | GI50 [7] |
| --- | --- | --- | --- | --- | --- | --- | --- | --- | --- | --- | --- |
| CC1(O)CCN(c2ccc(-c3n[nH]c4ccc(NC(=O)C(c5ccsc5)N5CCCC5)cc34)cc2)CC1 (stereo not drawn) [Example A89, N-(3-(4-(4-hydroxy-4-methylpiperidin-1-yl)phenyl)-1H-indazol-5-yl)-2-(pyrrolidin-1-yl)-2-(thiophen-3-yl)acetamide] | ≤ 5 µM | ≤ 5 µM | ≤ 5 µM | ≤ 5 µM | ≤ 5 µM | ≤ 5 µM | ≤ 5 µM | ≤ 5 µM | ≤ 5 µM | – | – |
| O=CN1CCC(Oc2ccc(-c3n[nH]c4ccc(NC(=O)C(c5ccsc5)N5CCCC5)cc34)cc2)CC1 (stereo not drawn) [Example A118] | ≤ 5 µM | ≤ 5 µM | ≤ 5 µM | ≤ 5 µM | ≤ 5 µM | ≤ 5 µM | ≤ 5 µM | ≤ 5 µM | ≤ 5 µM | – | – |
| O=CN1CCC(Oc2ccc(-c3n[nH]c4ccc(C(=O)NC(c5ccccn5)C5CC5)cc34)cc2)CC1 (stereo not drawn) [Example A160, N-(cyclopropyl(pyridin-2-yl)methyl)-3-(4-((1-formylpiperidin-4-yl)oxy)phenyl)-1H-indazole-5-carboxamide] | ≤ 5 µM | ≤ 5 µM | ≤ 5 µM | ≤ 5 µM | ≤ 5 µM | ≤ 5 µM | ≤ 5 µM | ≤ 5 µM | ≤ 5 µM | – | – |
| CN1CCC(Oc2ccc(-c3n[nH]c4ccc(C(=O)N[C@H](c5sccc5Cl)C5CC5)cc34)cc2)CC1 [Example A167, (S)—N-((3-chlorothiophen-2-yl)(cyclopropyl)methyl)-3-(4-((1-methylpiperidin-4-yl)oxy)phenyl)-1H-indazole-5-carboxamide] | ≤ 5 µM | ≤ 5 µM | ≤ 5 µM | ≤ 5 µM | ≤ 5 µM | ≤ 5 µM | ≤ 5 µM | ≤ 5 µM | ≤ 5 µM | – | – |
| CO[C@@H](C(=O)Nc1ccc2[nH]nc(-c3ccc(OC4CCN(C=O)CC4)cc3)c2c1)c1ccccc1 [Example A169, (R)—N-(3-(4-((1-formylpiperidin-4-yl)oxy)phenyl)-1H-indazol-5-yl)-2-methoxy-2-phenylacetamide] | ≤ 5 µM | ≤ 5 µM | – | ≤ 5 µM | ≤ 5 µM | ≤ 5 µM | ≤ 5 µM | ≤ 5 µM | ≤ 5 µM | 5 to 20 µM | – |
| O=C(NC(c1ccccn1)C1CC1)c1ccc2[nH]nc(-c3ccc(OC4CCN(C5COC5)CC4)cc3)c2c1 (stereo not drawn) [Example A171, N-(cyclopropyl(pyridin-2-yl)methyl)-3-(4-((1-(oxetan-3-yl)piperidin-4-yl)oxy)phenyl)-1H-indazole-5-carboxamide] | ≤ 5 µM | ≤ 5 µM | ≤ 5 µM | ≤ 5 µM | ≤ 5 µM | ≤ 5 µM | ≤ 5 µM | ≤ 5 µM | ≤ 5 µM | ≤ 5 µM | – |
| O=C(Nc1ccc2[nH]nc(-c3ccc(N4CCOCC4)cc3)c2c1)C(c1ccsc1)N1CCC1 (stereo not drawn) [Example A172, 2-(azetidin-1-yl)-N-(3-(4-morpholinophenyl)-1H-indazol-5-yl)-2-(thiophen-3-yl)acetamide] | ≤ 5 µM | ≤ 5 µM | ≤ 5 µM | ≤ 5 µM | ≤ 5 µM | ≤ 5 µM | ≤ 5 µM | ≤ 5 µM | ≤ 5 µM | – | – |
| CCOC(C(=O)Nc1ccc2[nH]nc(-c3ccc(OC4CCN(C)CC4)cc3)c2c1)c1ccccc1 (stereo not drawn) [Example A181, 2-ethoxy-N-(3-(4-((1-methylpiperidin-4-yl)oxy)phenyl)-1H-indazol-5-yl)-2-phenylacetamide] | ≤ 5 µM | ≤ 5 µM | – | ≤ 5 µM | ≤ 5 µM | – | ≤ 5 µM | ≤ 5 µM | ≤ 5 µM | ≤ 5 µM | ≤ 5 µM |
| CN1CCC(Oc2ccc(-c3n[nH]c4ccc(NC(=O)C(OC5CCCC5)c5ccccc5)cc34)cc2)CC1 (stereo not drawn) [Example A183, 2-(cyclopentyloxy)-N-(3-(4-((1-methylpiperidin-4-yl)oxy)phenyl)-1H-indazol-5-yl)-2-phenylacetamide] | ≤ 5 µM | ≤ 5 µM | ≤ 5 µM | ≤ 5 µM | ≤ 5 µM | – | ≤ 5 µM | ≤ 5 µM | ≤ 5 µM | ≤ 5 µM | ≤ 5 µM |
| O=C(Nc1ccc2[nH]nc(-c3ccc(OC4CCN(C5COC5)CC4)cc3)c2c1)C(c1ccsc1)N1CCCC1 (stereo not drawn) [Example A184, N-(3-(4-((1-(oxetan-3-yl)piperidin-4-yl)oxy)phenyl)-1H-indazol-5-yl)-2-(pyrrolidin-1-yl)-2-(thiophen-3-yl)acetamide] | ≤ 5 µM | ≤ 5 µM | ≤ 5 µM | ≤ 5 µM | ≤ 5 µM | – | ≤ 5 µM | ≤ 5 µM | ≤ 5 µM | – | ≤ 5 µM |
| O=CN1CCC(Oc2ccc(-c3n[nH]c4ccc(C(=O)NC(c5ccsc5)C5CC5)cc34)cc2)CC1 (stereo not drawn) [Example A186, N-(cyclopropyl(thiophen-3-methyl-3-yl)methyl)-3-(4-((1-formylpiperidin-4-yl)oxy)phen)-1H-indazole-5-carboxamide] | ≤ 5 µM | ≤ 5 µM | ≤ 5 µM | ≤ 5 µM | ≤ 5 µM | – | ≤ 5 µM | ≤ 5 µM | ≤ 5 µM | – | – |
| O=C(NC(c1ccccc1)C1CC1)c1ccc2[nH]nc(-c3ccc(OC4CN(C5COC5)C4)cc3)c2c1 (stereo not drawn) [Example A190, N-(cyclopropyl(phenyl)methyl)-3-(4-((1-(oxetan-3-yl)azetidin-3-yl)oxy)phenyl)-1H-indazole-5-carboxamide] | ≤ 5 µM | ≤ 5 µM | ≤ 5 µM | ≤ 5 µM | ≤ 5 µM | – | ≤ 5 µM | ≤ 5 µM | ≤ 5 µM | – | – |
